Laboratory results as given in US20250257103A1, “Antimicrobial Proteins” (The Olive Feed Corporation Limited, priority 2024, published 2025).
Where no end group is shown, it is not given here.

Columns and labels:
Test in all cases: Candida growth inhibition, micro-broth dilution
Format in all cases: cell-based
Candida krusei = test system: Candida krusei; set-up: LogIC50: unit not given here; conditions: estimate; for Hill-slope: dose-response curve; for IC50 / LogIC50: growth inhibition, 24 hrs, 35° C., ½ strength PDB
Procedure: (§1) The proteins were chemically synthesised by solid phase peptide synthesis at a purity of >90% by (GL Biochem Ltd. Shanghai, People's Republic of China). Post-synthesis, the proteins were stored lyophilised at −20° C. to maintain their integrity. The proteins were weighed and dissolved in ultrapure water as a stock solution prior to experimentation. For all assays a 1:1 dilution was made with double-strength broth, the composition of which was tailored to the specific requirements of the organism.
(§2) Antifungal activity was assessed by a micro-broth dilution method modified by Handcock for cationic peptides and proteins. Given the propensity of cationic peptides and proteins to bind polystyrene, 96-well polypropylene plates were used as an alternative. Candida species MIC analysis were performed using ½ strength potato dextrose broth (PDB).
(§3) 96-well flat-bottomed polypropylene plates were prepared 30 mins prior to inoculation. The outer wells of the plate were filled with 200 μl of diH2O to mitigate evaporation in test lanes during incubation with low volumes and for prolonged periods. Given the high cost of the synthetic proteins minimal volume of 100 μl was utilised, and preliminary testing was conducted in duplicate. 50 μl of ½ strength PDB was dispensed into all remaining wells except column 3. 100 μl was added to column 2 and acting as a ‘broth only’ sterile control. Subsequently, 100 μl of the top standard protein solution, prepared at a 2× concentration (500 μg/ml) and suspended in half-strength PDB, was added to column 3. Using a multichannel pipette, 50 μl from each well in column 3 (rows B through G) were mixed with an equal volume of broth in column 4. This procedure was repeated by serial diluting the protein down to column 10. The final […] was not transferred to lane 11 but was instead disposed of.
(§4) Candida species were grown over 48 hours on ½ strength potato dextrose agar (PDA) at a temperature of 35° C. Cells were harvested directly from the agar plates and resuspended in 2 ml of ½ PDB. The cell concentration was determined using a haemocytometer, and subsequently, cells were diluted to 1×10^5 cells/ml in ½ strength PDB, resulting in a concentration of 5,000 cells per well. 50 μl of the diluted cell suspension was added to the wells in columns 3-11, working backwards from the lowest protein concentration. This step ensured a total volume of 100 μl in each well, giving a final top standard protein concentration of 250 μg/ml in the assay. Column 11 was designated as the growth control, containing cells only.
(§5) Absorbance readings were taken at time zero (T=0) at a wavelength of 595 nm for the analysis of all Candida spp. Subsequently, all plates were incubated at 35° C. for 24 hrs. To ensure uniform resuspension of cells, a multichannel pipette was used to agitate the cell suspension. A second series of absorbance measurements at 595 nm was conducted at T=24, enabling a comprehensive assessment of growth over the 24-hour period).
(§6) The activities of synthetic plant-like defensin analogues Olv1 and Olv2 were assessed against Candida albicans sc5314 (Table 2, FIG. 5A), Candida parapsilosis (Table 3, FIG. 5B), Candida tropicalis (Table 4, FIG. 5C) and Candida krusei (Table 5, FIG. 5D).
(§7) Log IC50: The logarithm of the concentration at which 50% inhibition of growth is observed, Hill-slope: Describes the steepness of the curve; a steeper slope indicates a more cooperative binding to the target and a sharper transition between the non-effective and effective doses and IC50: The actual concentration at which 50% inhibition is achieved, derived from the Log IC50.

Candida parapsilosis = conditions: estimate; for Hill-slope: dose-response curve; for IC50 / LogIC50: growth inhibition, 24 hrs, 35° C., ½ strength PDB
Procedure: as §1, §2, §3, §4, §5, §6, §7

Candida albicans 5314 = conditions: estimate
Procedure: as §1, §2, §3, §4, §5, §6, §7

Candida tropicalis = conditions: estimate; for Hill-slope: dose-response curve
Procedure: as §1, §2, §3, §4, §5, §6, §7

[1] = Candida albicans 5314, growth inhibition, 24 hrs, 35° C., ½ strength PDB
[2] = growth inhibition, 24 hrs, 35° C., ½ strength PDB

Sequence	Hill-slope (Candida krusei)	IC50 (Candida krusei)	LogIC50 (Candida krusei)	Hill-slope (Candida parapsilosis)	IC50 (Candida parapsilosis)	LogIC50 (Candida parapsilosis)	IC50 (Candida albicans 5314; [1])	LogIC50 (Candida albicans 5314; [1])	Hill-slope (Candida tropicalis)	LogIC50 (Candida tropicalis; [2])	Hill-slope (Candida albicans 5314; Candida albicans 5314, dose-response curve)	IC50 (Candida tropicalis; [2])
RTCESQSHRFKGSCVSKSNCAAVCQTEGFPDGYCRGFRRRCFCSKHC (cysteines drawn unpaired) [Olv1]	−11.209	90.642 µg/mL	1.957	−3.181	56.919 µg/mL	1.755	94.113 µg/mL	1.974	−9.410	1.602 log10(μg/ml)		
RVCSRLSKTWSGLCLNSGNCNRQCRNWEGALRGACHKRGWGFACFCYRKC (cysteines drawn unpaired) [Olv2]	−10.527	40.346 µg/mL	1.606	−3.474	54.233 µg/mL	1.734		1.866	−4.862	1.417 log10(μg/ml)	−11.59	26.098 µg/mL
